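Following 48 hours of exposure in 96-well plates, responses at five concentrations were used to interpolate endpoints linearly. GI50 = concentration required for 50% inhibition of growth.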 Calls of active or inactive are those of the source. Cut-off read from the data, not from the text of the source: active = GI50 up to about 1.1 µM and inactive = higher.
Key:
Test in all cases: inhibition of tumour cell growth, NCI panel, 48 h
786-0 = system: 786-0
A549 = system: A549
ACHN = system: ACHN
BT-549 = system: BT-549
CCRF-CEM = system: CCRF-CEM
COLO 205 = system: COLO 205
HCT-116 = system: HCT-116
HCT-15 = system: HCT-15
HL-60 = system: HL-60
HOP-62 = system: HOP-62
HOP-92 = system: HOP-92
HT-29 = system: HT-29
Hs-578T = system: Hs-578T
K562 = system: K562
KM12 = system: KM12
LOX IMVI = system: LOX IMVI
M14 = system: M14
MDA-MB-231 = system: MDA-MB-231
MDA-MB-435 = system: MDA-MB-435
MDA-N = system: MDA-N
MOLT-4 = system: MOLT-4
NCI-H23 = system: NCI-H23
NCI-H460 = system: NCI-H460
NCI/ADR-RES = system: NCI/ADR-RES
OVCAR-4 = system: OVCAR-4
OVCAR-5 = system: OVCAR-5
OVCAR-8 = system: OVCAR-8
PC-3 = system: PC-3
RPMI-8226 = system: RPMI-8226
SF-295 = system: SF-295
SF-539 = system: SF-539
SK-MEL-28 = system: SK-MEL-28
SK-MEL-2 = system: SK-MEL-2
SK-MEL-5 = system: SK-MEL-5
SK-OV-3 = system: SK-OV-3
SN12C = system: SN12C
SNB-19 = system: SNB-19
SNB-75 = system: SNB-75
SR = system: SR
SW-620 = system: SW-620
U-251 = system: U-251
UACC-257 = system: UACC-257
UACC-62 = system: UACC-62
UO-31 = system: UO-31
A498 = system: A498
CAKI-1 = system: CAKI-1
DU-145 = system: DU-145
EKVX = system: EKVX
HCC 2998 = system: HCC 2998
IGROV-1 = system: IGROV-1
MCF7 = system: MCF7
OVCAR-3 = system: OVCAR-3
RXF 393 = system: RXF 393
SF-268 = system: SF-268
T47D = system: T47D
TK-10 = system: TK-10

In the case of COc1ccc(-c2nc3ccccc3s2)cc1OC, the GI50 (786-0) is reported as 44.6 µM (inactive), the GI50 (A549) is reported as 51.6 µM (inactive) and the GI50 (ACHN) is reported as 40.4 µM (inactive). The GI50 (BT-549) was 15.4 µM (inactive), the GI50 (CCRF-CEM) was 76.9 µM (inactive) and the GI50 (COLO 205) was 21.9 µM (inactive). For the same molecule, the GI50 (HCT-116) was 45.1 µM (inactive), the GI50 (HCT-15) was 43.7 µM and the GI50 (HL-60) was > 100 µM (inactive). The GI50 (HOP-62) was 67.9 µM (inactive), the GI50 (HOP-92) was 6.59 µM (inactive) and the GI50 (HT-29) was 31.6 µM (inactive). The GI50 (Hs-578T) was 13.4 µM (inactive), the GI50 (K562) was > 100 µM (inactive) and the GI50 (KM12) was 30.2 µM (inactive). For the same molecule, the GI50 (LOX IMVI) was 27.1 µM (inactive), the GI50 (M14) was 94.4 µM (inactive) and the GI50 (MDA-MB-231) was 19.7 µM (inactive). The GI50 (MDA-MB-435) was > 100 µM (inactive), the GI50 (MDA-N) was 64.4 µM (inactive) and the GI50 (MOLT-4) was > 100 µM (inactive). The GI50 (NCI-H23) was 42.4 µM (inactive), the GI50 (NCI-H460) was 20.1 µM (inactive) and the GI50 (NCI/ADR-RES) was 42.5 µM (inactive). For the same molecule, the GI50 (OVCAR-4) was 46.6 µM (inactive), the GI50 (OVCAR-5) was > 100 µM (inactive) and the GI50 (OVCAR-8) was 63.4 µM (inactive). For the same molecule, the GI50 (PC-3) was 34.9 µM (inactive), the GI50 (RPMI-8226) was 22.7 µM (inactive) and the GI50 (SF-295) was 25.8 µM (inactive). For the same molecule, the GI50 (SF-539) was 54.6 µM (inactive), the GI50 (SK-MEL-28) was > 100 µM (inactive) and the GI50 (SK-MEL-2) was > 100 µM (inactive). The GI50 (SK-MEL-5) was 10.5 µM (inactive), the GI50 (SK-OV-3) was 15.5 µM (inactive) and the GI50 (SN12C) was 83.6 µM (inactive). The GI50 (SNB-19) was 4.75 µM (inactive), the GI50 (SNB-75) was > 100 µM (inactive) and the GI50 (SR) was > 100 µM (inactive). The GI50 (SW-620) was > 100 µM (inactive), the GI50 (U-251) was 53.8 µM (inactive) and the GI50 (UACC-257) was > 100 µM (inactive). The GI50 (UACC-62) was 37.4 µM (inactive) and the GI50 (UO-31) was 41.7 µM (inactive).
For O=C1CC(=O)N(C2CCCCC2)C(=O)N1c1ccccc1S(=O)(=O)Oc1ccccc1, the GI50 (786-0) was 18.1 µM (inactive), the GI50 (A498) was > 100 µM (inactive) and the GI50 (A549) was > 100 µM (inactive). For the same molecule, the GI50 (ACHN) was 19.1 µM (inactive), the GI50 (BT-549) was 49.5 µM (inactive) and the GI50 (CAKI-1) was > 100 µM (inactive). For the same molecule, the GI50 (CCRF-CEM) was 14.9 µM (inactive), the GI50 (COLO 205) was > 100 µM (inactive) and the GI50 (DU-145) was > 100 µM (inactive). For the same molecule, the GI50 (EKVX) was > 100 µM (inactive), the GI50 (HCC 2998) was > 100 µM (inactive) and the GI50 (HCT-116) was > 100 µM (inactive). The GI50 (HCT-15) was greater than 100 µM, the GI50 (HL-60) was > 100 µM (inactive) and the GI50 (HOP-62) was 33 µM (inactive). For the same molecule, the GI50 (HOP-92) was 12.9 µM (inactive), the GI50 (HT-29) was > 100 µM (inactive) and the GI50 (IGROV-1) was 14.9 µM (inactive). For the same molecule, the GI50 (K562) was 26.9 µM (inactive), the GI50 (KM12) was > 100 µM (inactive) and the GI50 (LOX IMVI) was 2.59 µM (inactive). For the same molecule, the GI50 (M14) was > 100 µM (inactive), the GI50 (MCF7) was > 100 µM (inactive) and the GI50 (MDA-MB-231) was > 100 µM (inactive). The GI50 (MDA-MB-435) was > 100 µM (inactive), the GI50 (MDA-N) was > 100 µM (inactive) and the GI50 (MOLT-4) was 19.2 µM (inactive). The GI50 (NCI-H460) was > 100 µM (inactive), the GI50 (NCI/ADR-RES) was > 100 µM (inactive) and the GI50 (OVCAR-3) was > 100 µM (inactive). For the same molecule, the GI50 (OVCAR-4) was > 100 µM (inactive), the GI50 (OVCAR-5) was > 100 µM (inactive) and the GI50 (OVCAR-8) was > 100 µM (inactive). The GI50 (PC-3) was > 100 µM (inactive), the GI50 (RPMI-8226) was 26.5 µM (inactive) and the GI50 (RXF 393) was > 100 µM (inactive). For the same molecule, the GI50 (SF-268) was 90.6 µM (inactive), the GI50 (SF-295) was > 100 µM (inactive) and the GI50 (SF-539) was > 100 µM (inactive). For the same molecule, the GI50 (SK-MEL-28) was > 100 µM (inactive), the GI50 (SK-MEL-2) was > 100 µM (inactive) and the GI50 (SK-MEL-5) was > 100 µM (inactive). For the same molecule, the GI50 (SK-OV-3) was > 100 µM (inactive), the GI50 (SN12C) was > 100 µM (inactive) and the GI50 (SNB-19) was > 100 µM (inactive). The GI50 (SNB-75) was > 100 µM (inactive), the GI50 (SR) was > 100 µM (inactive) and the GI50 (SW-620) was > 100 µM (inactive). The GI50 (T47D) was 85.1 µM (inactive), the GI50 (TK-10) was > 100 µM (inactive) and the GI50 (U-251) was > 100 µM (inactive). The GI50 (UACC-257) was > 100 µM (inactive), the GI50 (UACC-62) was > 100 µM (inactive) and the GI50 (UO-31) was 18.1 µM (inactive).

— ChEMBL document CHEMBL1201862, “PubChem BioAssay data set” (2004)
